Data: PubChem BioAssay AID328 (DTP/NCI, 2004)
Where “and” joins values, the source holds several entries; their conditions need not be identical. Equal entries are not always repeated. Inconclusive results and toxic doses are left out.

System: BDF1 mice, P388 leukemia ip, median survival T/C
Assay: NCI In Vivo Anticancer Drug Screen. Data for tumor model P388 Leukemia (intraperitoneal) in B6D2F1 (BDF1) mice
Conditions: endpoint: median survival time, higher = longer survival
Outline: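 Vehicle-dosed animals serve as the reference; survival of compound-dosed, tumour-implanted mice is divided by it.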

[1] = dose: 12.5 mg/kg/injection, schedule: Q01DX009 (ip), vehicle: saline with Tween-80
[2] = dose: 25.0 mg/kg/injection, schedule: Q01DX009 (ip), vehicle: saline with Tween-80
[3] = dose: 50.0 mg/kg/injection, schedule: Q01DX009 (ip), vehicle: saline with Tween-80
[4] = dose: 50.0 mg/kg/injection, schedule: Q01DX009 (ip), vehicle: saline
[5] = dose: 100.0 mg/kg/injection, schedule: Q01DX009 (ip), vehicle: saline with Tween-80
[6] = dose: 100.0 mg/kg/injection, schedule: Q01DX009 (ip), vehicle: saline
[7] = dose: 200.0 mg/kg/injection, schedule: Q01DX009 (ip), vehicle: saline with Tween-80
[8] = dose: 100.0 mg/kg/injection, schedule: Q04DX003 (ip), vehicle: saline
[9] = dose: 200.0 mg/kg/injection, schedule: Q01DX009 (ip), vehicle: saline
[10] = dose: 200.0 mg/kg/injection, schedule: Q04DX003 (ip), vehicle: saline
[11] = dose: 400.0 mg/kg/injection, schedule: Q04DX003 (ip), vehicle: saline
[12] = dose: 100.0 mg/kg/injection, schedule: Q04DX003 (ip), vehicle: saline with Tween-80
[13] = dose: 100.0 mg/kg/injection, schedule: Q04DX003 (ip), vehicle: saline sonified
[14] = dose: 200.0 mg/kg/injection, schedule: Q04DX003 (ip), vehicle: saline sonified
[15] = dose: 400.0 mg/kg/injection, schedule: Q04DX003 (ip), vehicle: saline sonified
[16] = dose: 200.0 mg/kg/injection, schedule: Q04DX003 (ip), vehicle: saline with Tween-80

CN=S(=O)(OCC1CCC1COS(=O)(=NC)c1ccc(C)cc1)c1ccc(C)cc1 (configuration not stated)
T/C [1]: 109 % of control | T/C (dose: 12.5 mg/kg/injection, schedule: Q01DX009 (ip), vehicle: saline): 93 % of control | T/C [2]: 100 % of control | T/C (dose: 25.0 mg/kg/injection, schedule: Q01DX009 (ip), vehicle: saline): 93 % of control | T/C [3]: 90 % of control and 120 % of control | T/C [4]: 90 % of control | T/C [5]: 107 % of control and 114 % of control | T/C [6]: 93 % of control | T/C [7]: 116 % of control

CCSC(C(OC(C)=O)C(OC(C)=O)C(OC(C)=O)C(COC(C)=O)OC(C)=O)n1cnc2c(=S)nc[nH]c21 (configuration not stated)
T/C (dose: 12.5 mg/kg/injection, schedule: Q01DX005 (ip), vehicle: saline with Tween-80): 98 % of control | T/C (dose: 25.0 mg/kg/injection, schedule: Q01DX005 (ip), vehicle: saline with Tween-80): 95 % of control

CC(=O)NC1CCCC(O)C1 (configuration not stated)
T/C [6]: 90 % of control | T/C [8]: 100 % of control | T/C [9]: 95 % of control | T/C [10]: 113 % of control | T/C (dose: 400.0 mg/kg/injection, schedule: Q01DX009 (ip), vehicle: saline): 100 % of control | T/C [11]: 104 % of control

CCOC(=O)Nc1cncc(NC(=O)OCC)n1
T/C (dose: 6.25 mg/kg/injection, schedule: Q04DX003 (ip), vehicle: water): 106 % of control | T/C (dose: 12.5 mg/kg/injection, schedule: Q04DX003 (ip), vehicle: water): 100 % of control | T/C (dose: 25.0 mg/kg/injection, schedule: Q01DX009 (ip), vehicle: water): 100 % of control | T/C (dose: 25.0 mg/kg/injection, schedule: Q04DX003 (ip), vehicle: water): 105 % of control | T/C (dose: 50.0 mg/kg/injection, schedule: Q01DX009 (ip), vehicle: water): 101 % of control | T/C (dose: 50.0 mg/kg/injection, schedule: Q04DX003 (ip), vehicle: water): 101 % of control | T/C (dose: 100.0 mg/kg/injection, schedule: Q01DX009 (ip), vehicle: water): 93 % of control | T/C (dose: 100.0 mg/kg/injection, schedule: Q04DX003 (ip), vehicle: water): 100 % of control | T/C (dose: 200.0 mg/kg/injection, schedule: Q01DX009 (ip), vehicle: water): 95 % of control | T/C (dose: 400.0 mg/kg/injection, schedule: Q01DX009 (ip), vehicle: water): 87 % of control

CCOC(=O)C1C2OC(=O)C(C(=O)C2CN(CCCl)CCCl)C1C1CC=C(CC2=CCC(C3C4C(=O)OC(C(CN(CCCl)CCCl)C4=O)C3C(=O)OCC)CC2)CC1 (configuration not stated)
T/C (dose: 6.25 mg/kg/injection, schedule: Q01DX009 (ip), vehicle: Klucel (hydroxypropylcellulose) (HPC)): 169 % of control | T/C (dose: 12.5 mg/kg/injection, schedule: Q01DX009 (ip), vehicle: Klucel (hydroxypropylcellulose) (HPC)): 165 % of control (2×) and 178 % of control | T/C (dose: 25.0 mg/kg/injection, schedule: Q01DX009 (ip), vehicle: Klucel (hydroxypropylcellulose) (HPC)): 176 % of control and 184 % of control and 189 % of control | T/C (dose: 50.0 mg/kg/injection, schedule: Q01DX009 (ip), vehicle: Klucel (hydroxypropylcellulose) (HPC)): 184 % of control and 208 % of control and 215 % of control | T/C (dose: 100.0 mg/kg/injection, schedule: Q01DX009 (ip), vehicle: Klucel (hydroxypropylcellulose) (HPC)): 265 % of control and 291 % of control and 109 % of control

COc1cc(C(C2=C(O)c3ccccc3C(=O)C2=O)C2=C(O)c3ccccc3C(=O)C2=O)cc(Br)c1O
T/C (dose: 33.0 mg/kg/injection, schedule: Q01DX001 (ip), vehicle: saline): 95 % of control | T/C (dose: 50.0 mg/kg/injection, schedule: Q01DX001 (ip), vehicle: saline): 104 % of control | T/C (dose: 75.0 mg/kg/injection, schedule: Q01DX001 (ip), vehicle: saline): 100 % of control | T/C (dose: 100.0 mg/kg/injection, schedule: Q01DX001 (ip), vehicle: saline): 115 % of control | T/C (dose: 200.0 mg/kg/injection, schedule: Q01DX001 (ip), vehicle: saline): 110 % of control

CC1=C(C#N)C(C)(C)C(C#N)=C(C)N1C
T/C (dose: 25.0 mg/kg/injection, schedule: Q01DX009 (ip), vehicle: distilled water + Tween-80): 88 % of control | T/C (dose: 50.0 mg/kg/injection, schedule: Q01DX009 (ip), vehicle: distilled water + Tween-80): 100 % of control | T/C (dose: 100.0 mg/kg/injection, schedule: Q01DX009 (ip), vehicle: distilled water + Tween-80): 104 % of control

NC(CO)C(=O)O.[Cl-].[Cl-].[Cl-].[Cl-].[Pt+2] (configuration not stated)
T/C [4]: 116 % of control

Cc1ccc(S(=O)(=O)OC2CCCCCCCCCCC2=O)cc1 (configuration not stated)
T/C (dose: 25.0 mg/kg/injection, schedule: Q04DX003 (ip), vehicle: other): 99 % of control | T/C (dose: 50.0 mg/kg/injection, schedule: Q04DX003 (ip), vehicle: other): 96 % of control | T/C (dose: 100.0 mg/kg/injection, schedule: Q04DX003 (ip), vehicle: other): 95 % of control

O=C(O)C(O)C(O)C(O)C(O)CO.[Mn] (configuration not stated)
T/C (dose: 66.0 mg/kg/injection, schedule: Q01DX009 (ip), vehicle: saline): 116 % of control | T/C [6]: 116 % of control

O=C(COCc1ccccc1)OCc1ccccc1
T/C [8]: 109 % of control | T/C [10]: 104 % of control | T/C [11]: 113 % of control

O=C1C=C(NCc2ccccc2)CCC1
T/C [2]: 108 % of control | T/C [3]: 100 % of control | T/C [4]: 96 % of control | T/C [9]: 105 % of control

CCC12C=CCN3CCC4(c5c(C(c6ccc(OC)cc6)c6c(CN(C)C)c7ccccc7n6C)cc(OC)cc5N(C)C4C(O)(C(=O)OC)C1OC(C)=O)C32 (configuration not stated)
T/C (dose: 0.3 mg/kg/injection, schedule: Q01DX009 (ip), vehicle: saline): 93 % of control | T/C (dose: 0.6 mg/kg/injection, schedule: Q01DX009 (ip), vehicle: saline): 98 % of control | T/C (dose: 4.0 mg/kg/injection, schedule: Q01DX009 (ip), vehicle: saline): 97 % of control | T/C (dose: 8.0 mg/kg/injection, schedule: Q01DX009 (ip), vehicle: saline): 96 % of control | T/C (dose: 15.0 mg/kg/injection, schedule: Q01DX009 (ip), vehicle: saline): 107 % of control | T/C (dose: 16.0 mg/kg/injection, schedule: Q01DX009 (ip), vehicle: saline): 95 % of control | T/C (dose: 60.0 mg/kg/injection, schedule: Q01DX009 (ip), vehicle: saline): 123 % of control

COc1ccc(Cc2c3cc(OC)c(OC)cc3cc[n+]2C)cc1OC
T/C [2]: 90 % of control | T/C [3]: 100 % of control | T/C [12]: 108 % of control

CC(=O)/C=C/c1ccc([N+](=O)[O-])cc1
T/C [13]: 90 % of control | T/C [14]: 90 % of control | T/C [15]: 100 % of control

NC(C(=O)O)C(=O)c1ccccc1 (configuration not stated)
T/C [13]: 100 % of control | T/C [14]: 100 % of control | T/C [15]: 100 % of control

Cc1[o+]c(C)c2c(c1C)-c1ccccc1C2=O
T/C (dose: 6.25 mg/kg/injection, schedule: Q01DX009 (ip), vehicle: saline with Tween-80): 104 % of control | T/C [1]: 113 % of control | T/C [2]: 98 % of control | T/C (dose: 25.0 mg/kg/injection, schedule: Q04DX003 (ip), vehicle: saline with Tween-80): 109 % of control | T/C [3]: 106 % of control | T/C [5]: 120 % of control | T/C [12]: 100 % of control | T/C [7]: 104 % of control | T/C [16]: 116 % of control

O=C(NCCBr)Nc1ccccc1C(F)(F)F
T/C (dose: 100.0 mg/kg/injection, schedule: Q04DX003 (ip), vehicle: Klucel (hydroxypropylcellulose) (HPC)): 95 % of control | T/C (dose: 200.0 mg/kg/injection, schedule: Q04DX003 (ip), vehicle: Klucel (hydroxypropylcellulose) (HPC)): 109 % of control | T/C (dose: 400.0 mg/kg/injection, schedule: Q04DX003 (ip), vehicle: Klucel (hydroxypropylcellulose) (HPC)): 109 % of control

C(=C\c1ccccc1)/CSc1ncnc2nc[nH]c12
T/C [5]: 104 % of control | T/C [12]: 90 % of control | T/C [7]: 104 % of control | T/C [16]: 104 % of control | T/C (dose: 400.0 mg/kg/injection, schedule: Q01DX009 (ip), vehicle: saline with Tween-80): 100 % of control | T/C (dose: 400.0 mg/kg/injection, schedule: Q04DX003 (ip), vehicle: saline with Tween-80): 100 % of control
